Source: US5317086A, “Cysteine proteinase inhibitors and inhibitor precursors” (The Regents of the University of California, priority 1992, dated 1994)
Non-standard residues stand in square brackets, D forms with d. Residues, ends and D or L forms follow the SMILES beside them. ξ: configuration not given here. *: point of attachment. MeOSuc = COC(=O)CCC(=O)*; ξF = NC(Cc1ccccc1)C(=O)O

Biological target: T1, papain (Carica papaya, UniProt P00784)
T1 construct: purchased Sigma
T1 sequence (P00784 134-345): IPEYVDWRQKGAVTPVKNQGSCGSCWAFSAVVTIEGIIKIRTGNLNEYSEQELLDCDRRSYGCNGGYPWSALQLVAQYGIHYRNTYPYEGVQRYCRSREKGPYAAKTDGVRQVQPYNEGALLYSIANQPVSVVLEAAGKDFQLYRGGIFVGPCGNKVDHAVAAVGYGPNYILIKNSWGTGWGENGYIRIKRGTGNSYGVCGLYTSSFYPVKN
Assay: Irreversible inhibition of papain (preincubation and 3000-fold dilution assay)
Type: biochemical
Details: control; 0.020 μM (666Ki) incubated with papain, diluted to (0.2 Ki); over 2.5 hr
Description: Papain (Sigma, 2x recrystallized) (1 mg/mL) was activated at 25° C. for 30 min prior to use in a solution of 0.1mM EDTA, 0.5 mM L-cysteine hydrochloride, and 0.06 mM mercaptoethanol, and was then diluted (20 μL to 1.0 mL) and stored at 4° C. for use in the assays. The cysteine and mercaptoethanol buffers were prepared fresh daily. The standard assay conditions consisted of 50 mM phosphate, 0.2 M NaCl, 5 mM EDTA, 2 mM dithiothreitol (DTT), 0.2% bovine serum albumin (BSA) and 20% CH3 CN, pH 6.5. However, these concentrations were obtained by dilution of a buffer of 100 mM phosphate, 0.4 M NaCl, 10 mM EDTA, 4 mM DTT at pH 6.5 to a final volume of 1 mL with the necessary amounts of CH3 CN and H2 O. The DTT and BSA were added fresh daily to the phosphate buffer. Kinetic measurements were performed by monitoring the fluorescence of 7-amino-4-methylcoumarin (MCA) [1 (excitation) 350 nm, 1 (emission) 460 nm] released upon hydrolysis of the substrate, CbzPheArgMCA. […] The Km was determined in duplicate runs by fitting rate vs. [S] using the program ENZFITTER. […]
The incomplete deactivation can be attributed to the increasing amounts of aldehyde present over time, which as a reversible inhibitor protects papain against alkylation. The dilution assay also provided evidence that the inhibition measured in the reversible assay was not due to trace amounts of aldehyde contamination. […]

COC(=O)CCC(=O)NC(Cc1ccccc1)C(=O)NCC=O (stereo not shown) [MeOSucPheGlyCHO] (MeOSuc-[ξF]-Gly-aldehyde)
loss of papain activity: 8%
